Data on 14 compounds can be found in PubChem BioAssay (NCI).

Test systems include PC-3 prostate; SF-539 CNS; SK-MEL-2 melanoma; DU-145 prostate; K-562 leukemia; OVCAR-8 ovarian; CAKI-1 renal; T-47D breast; HCT-15 colon; HL-60(TB) leukemia.
Common to all, as to experiment: NCI anticancer screen, dose series, 48 h

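Each compound was tested at five concentrations against cells in 96-well plates for 48 hours. TGI: concentration producing complete growth inhibition.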

As for `CC(C)CNc1nc2ncnc(N)c2[nH]1`, the TGI in the assay on PC-3 prostate, in the assay on SF-539 CNS, in the assay on SK-MEL-2 melanoma, in the assay on DU-145 prostate, in the assay on K-562 leukemia and in the assay on OVCAR-8 ovarian was above 100 µM in each case. In addition, the TGI in the assay with CAKI-1 renal, in the assay on T-47D breast, with HCT-15 colon and in the assay with HL-60(TB) leukemia was above 100 µM each time.

With `OCC(O)C(O)C(O)C(O)c1nc2ccc(Cl)cc2[nH]1` (stereo not drawn), the TGI in the assay on PC-3 prostate, with SF-539 CNS, with SK-MEL-2 melanoma, in the assay with DU-145 prostate, with K-562 leukemia and in the assay on OVCAR-8 ovarian was above 100 µM in each case. Moreover, the TGI was above 100 µM with CAKI-1 renal, above 100 µM with T-47D breast, above 100 µM with HCT-15 colon and 4.89 µM with HL-60(TB) leukemia.

Consider `Cc1ccc(OCC2OC(n3cnc4c(Cl)nc(N)nc43)CC2Oc2ccc(C)cc2)cc1` (stereo not drawn), for which the TGI in the assay on PC-3 prostate was above 58.5 µM; in the assay on SF-539 CNS, above 100 µM; in the assay on SK-MEL-2 melanoma, above 56.9 µM; in the assay on DU-145 prostate it was above 100 µM; with K-562 leukemia it was above 100 µM; in the assay with OVCAR-8 ovarian, above 100 µM. Moreover, the TGI with CAKI-1 renal is 20.3 µM; in the assay with T-47D breast it was above 100 µM; in the assay with HCT-15 colon, above 100 µM; with HL-60(TB) leukemia, above 71.7 µM.

As to `CCCCC(=O)c1c(O)nc2sccn2c1=O`, the TGI in the assay on PC-3 prostate, with SF-539 CNS, in the assay on SK-MEL-2 melanoma, with DU-145 prostate, in the assay with OVCAR-8 ovarian and in the assay on CAKI-1 renal was above 10 µM in each case. Moreover, the TGI with T-47D breast, in the assay with HCT-15 colon and in the assay with HL-60(TB) leukemia was above 10 µM in each case.

Take `Cc1cccc(Nc2nn3c(=O)c4c5c(sc4nc3s2)CCCC5)c1`: the TGI with PC-3 prostate, in the assay on SF-539 CNS, in the assay on SK-MEL-2 melanoma, in the assay on DU-145 prostate, with K-562 leukemia and in the assay on OVCAR-8 ovarian was above 100 µM throughout. The TGI with CAKI-1 renal is above 100 µM; with T-47D breast, 74.2 µM; with HCT-15 colon, above 100 µM; with HL-60(TB) leukemia it was above 100 µM.

As for `OCCO/N=C1\C(c2c(O)[nH]c3ccccc23)=Nc2ccccc21`, the TGI in the assay with PC-3 prostate, in the assay with SF-539 CNS, with SK-MEL-2 melanoma, in the assay on DU-145 prostate, in the assay on K-562 leukemia and in the assay with OVCAR-8 ovarian was above 100 µM each time. Further, the TGI in the assay on CAKI-1 renal, with T-47D breast, with HCT-15 colon and in the assay with HL-60(TB) leukemia was above 100 µM in each case.

In the case of `N#CC1(C#N)NC(c2cccs2)C(C#N)(C#N)NC1c1cccs1` (stereo not drawn), the TGI is above 100 µM in the assay with PC-3 prostate; 47.6 µM in the assay with SF-539 CNS; 50.5 µM in the assay with SK-MEL-2 melanoma; above 100 µM in the assay with DU-145 prostate; 56.3 µM in the assay on K-562 leukemia; above 100 µM with OVCAR-8 ovarian. In addition, the TGI was above 100 µM in the assay on CAKI-1 renal, above 100 µM in the assay on T-47D breast, above 100 µM in the assay on HCT-15 colon and 41.3 µM with HL-60(TB) leukemia.

Turning to `OC1(c2ccccc2)CCN(Cc2c[nH]c3ccccc23)CC1`, the TGI in the assay on PC-3 prostate is above 100 µM; in the assay on SF-539 CNS it was above 100 µM; in the assay on SK-MEL-2 melanoma it was 36.1 µM; in the assay with DU-145 prostate it was above 100 µM; in the assay on K-562 leukemia, above 100 µM; in the assay on OVCAR-8 ovarian, above 100 µM. Further, the TGI with CAKI-1 renal, in the assay on T-47D breast, in the assay with HCT-15 colon and in the assay on HL-60(TB) leukemia was above 100 µM in each case.

Consider `CC(NC(=O)C(NC(=O)CNC(=O)OC(C)(C)C)C(C)C)C(=O)Oc1c(Cl)c(Cl)c(Cl)c(Cl)c1Cl` (stereo not drawn), for which the TGI in the assay with PC-3 prostate is 32.1 µM; in the assay on SF-539 CNS it was 33.4 µM; with SK-MEL-2 melanoma it was 30.3 µM; in the assay on DU-145 prostate, 49.3 µM; with K-562 leukemia, above 100 µM; with OVCAR-8 ovarian it was 40.8 µM. Besides, the TGI in the assay on CAKI-1 renal was 39.3 µM; with T-47D breast it was 62.4 µM; with HCT-15 colon, 33.2 µM; in the assay on HL-60(TB) leukemia, above 100 µM.

Take `C[n+]1cccc2c(=O)c3ccccc3oc21`: the TGI with PC-3 prostate, with SF-539 CNS, in the assay with SK-MEL-2 melanoma, in the assay with DU-145 prostate, with K-562 leukemia and in the assay on OVCAR-8 ovarian was above 100 µM throughout. The TGI with CAKI-1 renal, in the assay on T-47D breast, in the assay on HCT-15 colon and with HL-60(TB) leukemia was above 100 µM throughout.

`O=[N+]([O-])c1ccc2sc(C=Nc3cnccn3)cc2c1`: the TGI is above 100 µM with PC-3 prostate; above 100 µM in the assay on SF-539 CNS; 75.2 µM in the assay with SK-MEL-2 melanoma; above 100 µM in the assay on DU-145 prostate; 88.6 µM in the assay on K-562 leukemia; above 100 µM in the assay with OVCAR-8 ovarian. The TGI in the assay with CAKI-1 renal is above 100 µM; with T-47D breast, 28 µM; in the assay on HCT-15 colon, above 100 µM; with HL-60(TB) leukemia, 43.8 µM.

With `C[N+](C)(C)c1ccc(C(N)C(=O)O)cc1` (stereo not drawn), the TGI with PC-3 prostate, in the assay on SK-MEL-2 melanoma, in the assay with DU-145 prostate, in the assay with K-562 leukemia, in the assay on OVCAR-8 ovarian and with CAKI-1 renal was above 100 µM in each case. The TGI in the assay on T-47D breast, in the assay with HCT-15 colon and with HL-60(TB) leukemia was above 100 µM in each case.

For the compound `CSCCC(N)C(=O)NCCNc1ccc(NCCNC(=O)C(N)CCSC)c2c1C(=O)c1ccccc1C2=O` (stereo not drawn), the TGI with PC-3 prostate is 6.02 µM; with SF-539 CNS it was 3.11 µM; in the assay on SK-MEL-2 melanoma, 7.59 µM; in the assay on DU-145 prostate it was 5.4 µM; in the assay on K-562 leukemia it was above 100 µM; in the assay on OVCAR-8 ovarian, 4.17 µM. For the same compound, the TGI in the assay with CAKI-1 renal was 7.25 µM; in the assay on T-47D breast, 10.9 µM; in the assay with HCT-15 colon, 16.3 µM; with HL-60(TB) leukemia it was 5.36 µM.

With `CCNC(=S)N=Nc1c(O)[nH]c2ccc([N+](=O)[O-])cc12`, the TGI with PC-3 prostate, with SF-539 CNS, in the assay with SK-MEL-2 melanoma, with DU-145 prostate, with K-562 leukemia and in the assay with OVCAR-8 ovarian was above 100 µM throughout. Further, the TGI with CAKI-1 renal, in the assay with T-47D breast, with HCT-15 colon and with HL-60(TB) leukemia was above 100 µM in each case.
